Measurements: US20150299125A1, “PRODRUG BIPYRIDYLAMINOPYRIDINES AS SYK INHIBITORS” (MERCK SHARP & DOHME CORP., priority 2012, published 2015)
Where two headings read alike, the source gives them in different places.

Tests used:
[1] = biological target: T1, recombinant human GST-Syk (Homo sapiens, UniProt P43405); test: Homogeneous Time-Resolved Fluorescence (HTRF) assay for the recombinant human Syk enzyme; assay type: biochemical; conditions: recombinant human GST-Syk 5 pM, ATP 25 μM, read-out: IC50
T1 construct: purchased Carna Biosciences 08-176
Outline: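 Recombinant GST-hSyk phosphorylates a biotinylated peptide for 45 min at room temperature. Quenched with EDTA buffer containing 2 nM Eu-anti-phosphotyrosine antibody and 70 nM SA-APC; HTRF read after 30 min.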

[2] = Conversion of prodrug to parent in in vitro biorelevant gastrointestinal tract media; assay type: in vitro ADME; conditions: 37° C.; for Conversion in SGF, time: simulated gastric fluid
Outline: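 Prodrug from DMSO stock (10 μL into 990 μL medium) is incubated at 37° C in SGF, FaSSIF, or FaSSIF with pancreatin (50 μL of a 10 mg/mL stock). Aliquots taken up to 24 h are analysed by HPLC for conversion to parent. Where a compound precipitated, separate samples per time point were diluted in acetonitrile/water (50/50) before analysis.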

[3] = Conversion of prodrug to parent in intestine homogenate; assay type: in vitro ADME; conditions: prodrug 1 μM, intestine S9 1 mg protein/mL, 37° C., pH 7.4, 2 h
Description: Conversion of Prodrug to Parent in Intestine Homogenate:
(§1) The likely stability of prodrugs in the intestine can be estimated by incubating a prodrug with intestine homogenate. Incubations of prodrugs (1 μM) with intestine S9 (1 mg protein/mL) were carried out at 37° C. in a phosphate buffer, pH 7.4. Control incubations contained BSA (1.1 mg/mL) instead of intestine S9 microsomes. Aliquots were removed at 0, 5, 15, 30, 60 and 120 min, treated with 4 volumes of acetonitrile containing 2% formic acid and an internal standard, and centrifuged. The supernatants were analyzed by LC-MS/MS for prodrug disappearance and appearance of active drug. The half-life of the prodrug was calculated from the % prodrug remaining at different time points calculated from on the peak area ratio relative to t=0. The amount of active drug generated at the different time points was determined using a standard curve.

[4] = Conversion of prodrug to parent in liver homogenate; assay type: in vitro ADME; conditions: prodrug 1 μM, liver S9 1 mg protein/mL, 37° C., pH 7.4, 2 h
Description: Conversion of Prodrug to Parent in Liver Homogenate:
as §1, with “liver” for “intestine”

Blood stability assay = assay type: in vitro ADME; conditions: whole blood; human blood, 37° C.
Description: The likely stability of prodrugs in the blood can be estimated by incubating a prodrug with blood. A prodrug stock solution was prepared at 10 mM in DMSO and working solutions (100 μM) containing the prodrug were prepared by diluting a suitable amount of the stock solution with acetonitrile/water (50/50). 5 μL of the working solution were added to 495 μL of pre-warmed blood (at 37° C.). After vortexing and mixing, 50 μL of the spiked blood sample were taken for the 0 time point and transferred to another vial containing 200 μL of quenching solution (labetalol, alprazolam and diclofenac in 100% acetonitrile) ensuring that the vial is lidded to prevent evaporation and kept on ice. While keeping the spiked blood sample at 37° C. at the following timepoints (0.25, 0.5, 1, 2 and 3 h) 5 additional aliquots (50 μL) were sampled and mixed with the quenching solution. At the end of the experiment the quenched samples were vortexed for 2 minutes and centrifuged for 10 minutes at 4000 rpm. The supernatant (100 μL) was then transferred and collected into a new 96-well plate and injected into the LC-MS/MS for analysis. For each test compound, the area ratios at each time point to the 0 hour area ratio were compared and converted to a percentage remaining. The percentage remaining were then plotted against time (h) and half life generated using the following equation t½=0.693/kel. Where kel is the elimination rate constant which is determined from the concentration versus time curve by linear regression at the terminal phase of the semi-logarithmic plot.

[5] = Solubility in biorelevant fasted state simulated intestinal fluid (FaSSIF); assay type: physicochemical; conditions: 25 °C, fassif, kinetic from dmso stock
Outline: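 Compound from 10 mM DMSO stock diluted into FaSSIF (maximum solubility approximately 200 μM), equilibrated, then filtered by centrifugation through a 0.45 μm polypropylene membrane. Filtrate and a 100 μM standard analysed by HPLC/DAD; solubility = (sample peak area/standard peak area) × standard concentration.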

[6] = dosed intranasally, phase I/II study, allergic rhinitis; cited from earlier work
[7] = phase II clinical trial for allergic rhinitis; cited from earlier work

IC50 [1] [nM]	Conversion in FaSSIF + Pancreatin, time ([2]; 3 h)	Conversion in FaSSIF, time ([2]; 5 h)	Conversion in SGF, time ([2]; 5 h)	Prodrug concentration at 2 h [3] [µM]	Prodrug concentration at 2 h [4] [µM]	half-life at 1 μM (Blood stability assay) [min]	solubility ([5]; FaSSIF (fasted state simulated intestinal fluid), FaSSIF, equilibrated overnight at 25° C., maximum solubility approximately 200 μM, read-out: Solubility) [µM]	Conversion in FaSSIF, time ([2]; 3 h)	solubility ([5]; Solubility) [µM]	Compound	PGD2 [6]	clinical safety [6]	efficacy versus placebo [7]
174	100%, 3 h	0%, 5 h	0%, 5 h	0	0	7				CCOCCOCCOC(=O)OCOC(=O)[C@H]1CC[C@H]([C@@](C)(O)c2ccc(-c3cc(C)cc(Nc4cc(C(F)F)ccn4)n3)cn2)CC1 [Example 2-2, 3-oxo-2,4,7,10-tetraoxadodec-1-yl trans-4-[(1R)-1-(6-{[4-(difluoromethyl)pyridin-2-yl]amino}-4-methyl-2,3′-bipyridin-6′-yl)-1-hydroxyethyl]cyclo hexanecarboxylate]			
3.6	45%, 3 h		0%, 5 h	0.321	0.314	15	200	12%, 3 h		Cc1cc(Nc2cc(C(F)F)ccn2)nc(-c2ccc([C@](C)(O)[C@H]3CC[C@H](C(=O)OC[N+]4(C)CCOCC4)CC3)nc2)c1.[I-] [Example 5-1, 4-{[({trans-4-[(1R)-1-(6-{[4-(Difluoromethyl)pyridin-2-yl]amino}-4-methyl-2,3′-bipyridin-6′-yl)-1-hydroxyethyl]cyclohexyl}carbonyl)oxy]methyl}-4-methylmorpholin-4-ium]			
0.8				0.844	0.622	24			140	Cc1cc(Nc2cc(C(F)F)ccn2)nc(-c2ccc([C@](C)(O)[C@H]3CC[C@H](C(=O)OCn4cc[n+](C)c4)CC3)nc2)c1 [Example 6-1, 1-{[({Trans-4-[(1R)-1-(6-{[4-(Difluoromethyl)pyridin-2-yl]amino}-4-methyl-2,3′-bipyridin-6′-yl)-1-hydroxyethyl]cyclohexyl}carbonyl)oxy]methyl}-3-methyl-1H-imidazol-3-ium]			
										Oc1cccc(Nc2ncc(F)c(Nc3cccc(O)c3)n2)c1 [Example R112]	statistically significant decrease	safe across a range of indicators	lack of efficacy versus placebo
